# Test system: up-regulation of ICAM-1 (CD54) by IFNγ in A549 lung epithelial cells
# Experiment: A549 Epithelial Line Stimulated with IFNγ (ICAM-1 surface expression, FACS)
# Format: cell-based, human
# Conditions: A549 epithelial line stimulated with IFNγ; ICAM-1 expression by FACS; read-out: IC50, Example 43
# How it was run: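 ICAM-1 (CD54) flow cytometry on live-gated A549 cells, geometric mean versus dose giving EC50. Cells received IFNγ at 75 ng/mL for 24 h after a 1 h compound pre-treatment spanning 30 μM to 14 nM in medium with 5% FBS and 0.3% DMSO.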
row,Compound,IC50 [µM]
1,"N#CCc1ccc(Nc2nc(Nc3cccc(S(N)(=O)=O)c3)ncc2F)cc1 [III-4, N2-(3-Aminosulfonyl)phenyl-N4-(4-cyanomethyl)phenyl-5-fluoro-2,4-pyrimidinediamine]",8.37
2,"Cc1ccc(Nc2ncc(F)c(Nc3ccc(CC#N)cc3)n2)cc1S(N)(=O)=O [III-7, N2-(3-Aminosulfonyl-4-methyl)phenyl-N4-(4-cyanomethyl)phenyl-5-fluoro-2,4-pyrimidinediamine]",12.3
3,"N#CCc1ccc(Nc2nc(Nc3ccc(Cl)c(S(N)(=O)=O)c3)ncc2F)cc1 [III-8, N2-(3-Aminosulfonyl-4-chloro)phenyl-N4-(4-cyanomethyl)phenyl-5-fluoro-2,4-pyrimidinediamine]",14.5
4,"COc1cc(Nc2ncc(F)c(Nc3ccc(CC#N)cc3)n2)ccc1S(N)(=O)=O [III-9, N2-(4-Aminosulfonyl-3-methoxy)phenyl-N4-(4-cyanomethyl)phenyl-5-fluoro-2,4-pyrimidinediamine]",23.6
5,Cc1ccc(Nc2ncc(C)c(Nc3ccc(CCC#N)cc3)n2)cc1S(N)(=O)=O [III-11],2.24
6,"N#CCCc1ccc(Nc2nc(Nc3cccc(S(N)(=O)=O)c3)ncc2F)cc1 [III-14, N2-(3-aminosulfonylphenyl)-N4-[4-(cyanoethylene)phenyl]-5-fluoro-2,4-pyrimidinediamine]",3.6
7,"Cc1ccc(Nc2ncc(F)c(Nc3ccc(CCC#N)cc3)n2)cc1S(N)(=O)=O [III-15, N2-(3-Aminosulfonyl-4-methylphenyl)-N4-[4-(cyanoethylene)phenyl]-5-fluoro-2,4-pyrimidinediamine]",4.66
8,"N#CCCc1ccc(Nc2nc(Nc3ccc(F)c(S(N)(=O)=O)c3)ncc2F)cc1 [III-16, N2-(3-Aminosulfonyl-4-fluorophenyl)-N4-[4-(cyanoethylene)phenyl]-5-fluoro-2,4-pyrimidinediamine]",7.24
9,"NS(=O)(=O)c1cccc(Nc2ncc(F)c(Nc3cccc(CNC(=O)C4CC4)c3)n2)c1 [III-39, N2-(3-aminosulfonyl)phenyl-N4-(3-cyclopropylcarbonylaminomethyl)phenyl-5-fluoro-2,4-pyrimidinediamine]",4.15
10,"N2-[3-Aminosulfonyl-4-(4-methylpiperazin-1-yl)phenyl]-5-fluoro-N4-[2-fluoro-4-(5-methylisoxazol-3-yl)methyleneoxyphenyl]-2,4-pyrimidinediamine [Compound I-251]",34.9
